The nature of series [1]: Blood-brain barrier permeability test, oral, SD rats. In kind it is in vivo. The following applies: rat, oral 10 mg/kg single dose; for concentration at 1 h / Kp at 1 h: time point 1 h; for concentration at 2 h / Kp at 2 h: time point 2 h; for concentration at 4 h / Kp at 4 h: time point 4 h. As for the experimental part:
Test Example 6: Blood-Brain Barrier Permeability Test
Each test compound was administered orally at a single dose of 10 mg/kg to SD rats for pharmacokinetic study. Each group included 9 rats. The test compound was dissolved in 5% DMSO+10% solutol+85% saline, vortexed for 1-2 min, and ultrasonicated for 5-10 min to prepare into a colorless, transparent and clear administration solution. Animals were fasted overnight before administration. 1 h, 2 h, and 4 h after administration, three SD rats were selected from each group to take about 0.2-0.3 mL of blood through their orbit. The blood sample was placed on ice once collected, and centrifuged to separate the plasma within 15 min (centrifugation conditions: 8000 rpm, 1 min, room temperature). The collected plasma was stored at −20° C. before analysis. Immediately after blood collection, the cerebrospinal fluid and brain tissue were collected. The cerebrospinal fluid was draw out by dural puncture with a micro-sampler syringe under direct vision. Namely, about 100 μl of cerebrospinal fluid was collected with a 100 μl micro sample syringe from the rat that was anesthetized by chloral hydrate, with the head-fixed, the back hair-cut off, a transverse incision (2 cm) made at the line connecting the roots of the two ears, and the muscle layer of the neck and skull base bluntly scraped to expose the foramen magnum. The cerebrospinal fluid was stored at −20° C. before analysis. The rat then was sacrificed immediately, with its head cut off. The dissected brain tissue, with the surface capillaries peeled off, was weighed, added with 3 times the amount of cold saline, homogenized by a homogenizer for 1 min, and stored at −20° C. before analysis. 20 μL of plasma sample and brain homogenate sample was respectively added into 200 μL of working internal standard solution (the same volume of vehicle was added to the blank instead of internal standard), vortexed for 1 min, and centrifuged at 13500 rpm for 10 min. 100 μL of the supernatant was taken and analyzed by LC-MS/MS. 20 μL of the cerebrospinal fluid was added into 60 μL of working internal standard solution (the same volume of vehicle, instead of internal standard, was added to the blank), vortexed for 1 min, and centrifuged at 13500 rpm for 10 min. 50 μL of the supernatant was taken and analyzed by LC-MS/MS.

Another series deals with BT474 cell proliferation. The experiment in a line: In vitro cell proliferation inhibitory activity test (CTG), BT474. It counts as cell-based. The conditions noted are these: Homo sapiens, BT-474, BT474 cell proliferation. As for the experimental part:
(§1) Test Example 4: In Vitro Cell Proliferation Inhibitory Activity Test
(§2) Cells were cultured in 1640 medium, added with 10% inactivated FBS and 1% double antibiotics, and cultured at 37° C. and 5% CO2.
(§3) (1) Cells were routinely cultured until the cell density was 80%-90%, and the cells were harvested when their number reached the requirement.
(§4) (2) Cells were resuspended with corresponding culture medium, counted, and prepared into cell suspension at appropriate density.
(§5) (3) The cell suspension was added to a 96-well plate, 100 μL per well.
(§6) (4) Cells were cultured overnight in a 37° C., 5% CO2 incubator.
(§7) (1) The compounds to be tested were diluted with DMSO to make a stock solution with a final concentration of 20 mM for later use.
(§8) (2) The stock solution was diluted 10 times from 20 mM to 2 mM with DMSO, and then diluted 3 times from 2 mM to 9 concentrations.
(§9) (3) The blank control wells were cells plus 0.5% DMSO, as high-reading control wells.
(§10) (4) Wells with no cells and only medium were used as low-reading control wells.
(§11) 4: Cell treatment with compound
(§12) (1) 24 h after the cells were plated, the compounds acted alone, and 99 μL of growth medium was added to each well, followed by 1 μL of the compound prepared in step 3. The plate was shaken gently to mix uniformly, and then placed in a 37° C., 5% CO2 incubator.
(§13) (2) The cell plate was placed in an incubator for 72 h.
(§14) 5: Detection by CTG method
(§15) (1) The cell plate to be tested was placed at room temperature for 30 min, and 100 μL of medium was discarded from each well.
(§16) (2) 100 μL of CTG reagent (CelltiterGlo kit) was added to each well, placed on a fast shaker for 2 min, and stood at room temperature in the dark for 30 min.
(§17) (3) The chemiluminescent signal value was read with the Envision instrument.
(§18) IC50 was calculated by using GraphPad Prism 8 software. The IC50 (half inhibitory concentration) of the compound was derived using the following nonlinear fitting formula, and the results are shown in the following table:
(§19) Y=Bottom+(Top−Bottom)/(1+10^((Log IC50−X)×HillSlope))
(§20) X: log value of compound concentration, Y: inhibition rate (% inhibition)
(§21) Inhibition rate (% inhibition)=(reading of high-reading control well-reading of compound well)/(reading of high-reading control well-reading of low-reading control well)×100

Series [2] is described as follows: Liver microsome metabolic stability test (rat). It counts as in vitro ADME. The conditions noted are these: for microsomal CLint: read-out: CLint (μL/min/mg) Rat. In short, it runs like this: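 Human or rat liver microsomes (working solution 0.5 mg/mL protein) were pre-incubated with compound at 37 °C. The reaction was started with NADPH regeneration system and quenched with ac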
(In general: Liver microsomes are a subcellular fraction often used to study metabolism.)

Series [3] concerns NCI-N87 cell proliferation. The series is described as follows: In vitro cell proliferation inhibitory activity test (CTG), NCI-N87. It counts as cell-based. The conditions noted are these: Homo sapiens. The method, then:
as §1, §2, §3, §4, §5, §6, §7, §8, §9, §10, §11, §12, §13, §14, §15, §16, §17, §18, §19, §20, §21

Where [4] appears, read: brain, read-out: Drug concentration in brain tissue.
The mark [5] stands for this setting: brain/plasma, read-out: Brain tissue/plasma.
The mark [6] stands for this setting: cerebrospinal fluid, read-out: Drug concentration in cerebrospinal fluid.
[7] abbreviates: cerebrospinal fluid/plasma, read-out: Cerebrospinal fluid/plasma.
Where [8] appears, read: plasma, read-out: Plasma drug concentration.

Like-named read-outs stand apart in the source and are kept apart here.

In general, IC50 refers to the concentration that gives 50% inhibition. The low end stands for higher potency, the high end for lower potency.

For `Nc1nccn2c(C3CCC(CO)OC3)nc(-c3ccc(C(F)(F)c4ccccc4)cc3)c12` (single isomer, unassigned) [Example 111-P1], in series [1] (setting [4]), the concentration at 1 h came out at 1250 ng/g, the concentration at 2 h stood at 1070 ng/g and the concentration at 4 h came to 787 ng/g. For the same compound, in series [1] (setting [5]), the Kp at 1 h came to 0.62, the Kp at 2 h is 0.67 and the Kp at 4 h was found to be 0.59. Besides, in series [1] (setting [6]), the concentration at 1 h was found to be 66.2 ng/mL, the concentration at 2 h stood at 52.3 ng/mL and the concentration at 4 h is 41.9 ng/mL. For the same compound, in series [1] (setting [7]), the Kp at 1 h was 0.033, the Kp at 2 h was found to be 0.033 and the Kp at 4 h amounted to 0.031. In series [1] (setting [8]), the concentration at 1 h amounted to 2010 ng/mL, the concentration at 2 h worked out at 1580 ng/mL and the concentration at 4 h is 1340 ng/mL. The compound further returned an IC50 in the series on BT474 cell proliferation of 1550 nM.
`Nc1nccn2c(C34CCC(CO)(CC3)OC4)nc(-c3ccc(C(F)(F)c4ccccc4)cc3)c12` [Example 125]: in series [2] (liver microsomes), the microsomal CLint was found to be 21.7 µL/min/mg. Besides, in series [1] (setting [4]), the concentration at 1 h came to 1340 ng/g, the concentration at 2 h came to 1170 ng/g and the concentration at 4 h came to 1060 ng/g. Further, in series [1] (setting [5]), the Kp at 1 h worked out at 0.91, the Kp at 2 h stood at 1.03 and the Kp at 4 h worked out at 0.84. Besides, in series [1] (setting [6]), the concentration at 1 h turned out to be 34.1 ng/mL, the concentration at 2 h stood at 30.4 ng/mL and the concentration at 4 h was 29.6 ng/mL. For the same compound, in series [1] (setting [7]), the Kp at 1 h was found to be 0.023, the Kp at 2 h is 0.027 and the Kp at 4 h turned out to be 0.024. Further, in series [1] (setting [8]), the concentration at 1 h is 1470 ng/mL, the concentration at 2 h was found to be 1130 ng/mL and the concentration at 4 h stood at 1260 ng/mL. This compound also yielded an IC50 with BT474 cell proliferation of 340 nM.
As to `Nc1nccn2c(C34CCC(CO)(CC3)OC4)nc(-c3ccc(C(F)(F)c4ccccc4F)cc3)c12` [Example 145], in series [2] (60 min), the “% Remaining (60 min) Rat” value is reported as 49.6%. The half-life in series [2] (liver microsomes, 0.5 mg/mL protein, read-out: T1/2 (min) Rat) is 60.8 min. In addition, the microsomal CLint in series [2] (liver microsomes) amounted to 22.8 µL/min/mg. Further, the values for the IC50 (in series [3]; in the series with BT474 cell proliferation) were 37.5 nM and 40.9 nM, respectively. Further, the concentration at 1 h in series [1] (setting [4]) amounted to 643 ng/g; in series [1] (setting [6]), 59.7 ng/mL; in series [1] (setting [8]) it was 1650 ng/mL. The concentration at 4 h came to 910 ng/g in series [1] (setting [4]), 74.3 ng/mL in series [1] (setting [6]) and 1710 ng/mL in series [1] (setting [8]). Moreover, the Kp at 1 h in series [1] (setting [5]) came to 0.39; in series [1] (setting [7]), 0.036. For the same compound, the Kp at 4 h in series [1] (setting [5]) turned out to be 0.53; in series [1] (setting [7]), 0.044.
Consider `Nc1nccn2c(C34CCC(CO)(CC3)OC4)nc(-c3ccc(C(F)(F)c4cccc(Cl)c4F)cc3)c12` [Example 152], for which the microsomal CLint in series [2] (liver microsomes) came out at 102 µL/min/mg. Further, the IC50 in series [3] was 43.4 nM; with BT474 cell proliferation, 65.5 nM. Further, the concentration at 1 h stood at 288 ng/g in series [1] (setting [4]), 187 ng/mL in series [1] (setting [6]) and 1060 ng/mL in series [1] (setting [8]). Moreover, the concentration at 2 h amounted to 378 ng/g in series [1] (setting [4]), 227 ng/mL in series [1] (setting [6]) and 961 ng/mL in series [1] (setting [8]). Also, the concentration at 4 h in series [1] (setting [4]) came to 232 ng/g; in series [1] (setting [6]) it was 181 ng/mL; in series [1] (setting [8]) it was 715 ng/mL. The Kp at 1 h in series [1] (setting [5]) stood at 0.27; in series [1] (setting [7]), 0.18. Besides, the Kp at 2 h was found to be 0.39 in series [1] (setting [5]) and 0.24 in series [1] (setting [7]). Further, the Kp at 4 h is 0.32 in series [1] (setting [5]) and 0.25 in series [1] (setting [7]).
On to `Nc1nccn2c(C34CCC(CO)(CC3)OC4)nc(-c3ccc(C(F)(F)c4ccccc4Cl)cc3)c12` [Example 155], for which the microsomal CLint in series [2] (liver microsomes) amounted to 62.2 µL/min/mg. In series [1] (setting [4]), the concentration at 1 h came to 1520 ng/g, the concentration at 2 h amounted to 1860 ng/g and the concentration at 4 h came out at 1260 ng/g. Moreover, in series [1] (setting [5]), the Kp at 1 h was 1.21, the Kp at 2 h was 1.3 and the Kp at 4 h came out at 1.19. Also, in series [1] (setting [6]), the concentration at 1 h is 292 ng/mL, the concentration at 2 h amounted to 374 ng/mL and the concentration at 4 h came out at 220 ng/mL. In addition, in series [1] (setting [7]), the Kp at 1 h worked out at 0.23, the Kp at 2 h was determined as 0.26 and the Kp at 4 h amounted to 0.21. Besides, in series [1] (setting [8]), the concentration at 1 h came to 1250 ng/mL, the concentration at 2 h was 1430 ng/mL and the concentration at 4 h is 1060 ng/mL. Besides, the IC50 in the series with BT474 cell proliferation amounted to 46.4 nM.
In the case of `Cc1cc(Nc2ncnc3ccc(NC4=NC(C)(C)CO4)cc23)ccc1Oc1ccn2ncnc2c1` [Tucatinib, reference compound], the microsomal CLint in series [2] (liver microsomes) was found to be 34.9 µL/min/mg. Besides, the IC50 was 26 nM in series [3] and 30.2 nM with BT474 cell proliferation. The concentration at 1 h stood at 26.5 ng/g in series [1] (setting [4]), 19.2 ng/mL in series [1] (setting [6]) and 2030 ng/mL in series [1] (setting [8]). Besides, the concentration at 2 h in series [1] (setting [4]) worked out at 29.5 ng/g; in series [1] (setting [6]), 10.4 ng/mL; in series [1] (setting [8]), 1940 ng/mL. Also, the concentration at 4 h came to 24.5 ng/g in series [1] (setting [4]), 14.9 ng/mL in series [1] (setting [6]) and 1900 ng/mL in series [1] (setting [8]). The Kp at 1 h in series [1] (setting [5]) is 0.013; in series [1] (setting [7]), 0.009. The Kp at 2 h in series [1] (setting [5]) is 0.015; in series [1] (setting [7]), 0.005. Besides, the Kp at 4 h in series [1] (setting [5]) is 0.013; in series [1] (setting [7]), 0.008.

Values taken from patent US20230257383A1, “COMPOUND SERVING AS BTK INHIBITOR, PREPARATION METHOD THEREFOR, AND USE THEREOF” (CHENGDU HYPERWAY PHARMACEUTICALS CO., LTD., priority 2020, published 2023).
